According to patent US9790210B2, “N-(monocyclic aryl),N'-pyrazolyl-urea, thiourea, guanidine and cyanoguanidine compounds as TrkA kinase inhibitors” (Array BioPharma Inc., priority 2012, dated 2017):
Structures can show the parent of a compound that is named as a salt.

Each compound was assayed against TrkA (Homo sapiens, UniProt P04629) (assay: TrkA LanthaScreen Eu Kinase Binding Assay). Conditions: averaged IC50; TR-FRET binding assay; read-out: TrkA Enzyme IC50.
Sequence of TrkA (P04629 440-796 limits assumed): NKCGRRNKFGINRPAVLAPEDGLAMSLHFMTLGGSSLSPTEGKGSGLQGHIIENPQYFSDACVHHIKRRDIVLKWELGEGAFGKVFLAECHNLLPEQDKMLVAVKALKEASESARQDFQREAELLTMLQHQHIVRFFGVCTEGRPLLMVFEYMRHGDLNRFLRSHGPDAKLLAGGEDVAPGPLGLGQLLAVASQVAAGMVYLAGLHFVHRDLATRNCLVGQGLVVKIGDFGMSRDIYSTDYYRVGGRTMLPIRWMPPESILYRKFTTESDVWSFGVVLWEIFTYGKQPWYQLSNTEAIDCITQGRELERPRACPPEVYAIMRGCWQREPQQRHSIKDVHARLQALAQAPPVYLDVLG
Design: 6HIS tagged cytoplasmic domain from Invitrogen, Catalog No. PV3144; purchased Invitrogen PV3144
Experimental: TrkA binding activity was determined in a TrkA LanthaScreen™ Eu Kinase Binding Assay. 5 nM His-tagged recombinant human TrkA (6HIS tagged cytoplasmic domain from Invitrogen, Catalog No. PV3144) was incubated with 4 nM Alexa-Fluor® Tracer 236 (Invitrogen Cat. No. PV5592), 2 nM biotinylated anti-His (Invitrogen Cat. No. PV6090), and 2 nM europium-labeled Streptavidin (Invitrogen Cat. No. PV5899), in buffer (25 mM MOPS, pH 7.5, 5 mM MgCl2, 0.005% Triton X-100). Three fold serial dilutions of compounds of the invention in DMSO were added to a final percentage of 2% DMSO. After 60-minute incubation at 22° C., the reaction was measured using the EnVision mutlimode plate reader (PerkinElmer) via TR-FRET dual wavelength detection at […]. The percent of control was calculated using a ratiometric emission factor. The IC50 values were determined by fitting a four parameter model to the percent of control data.
Table A provides averaged IC50 values for compounds of the invention when tested in the assay of Example A, where A represents an averaged IC50 value<100 nM; B represents an averaged IC50 value from 100 to 1,000 nM; and C represents an averaged IC50 value from 1,000 to 10,000 nM.
In the case of `COCCCc1cc(Cl)c(Cl)cc1NC(=O)Nc1c(C)c(OCC2CCNCC2)nn1-c1ccccc1` [Example 41, 1-(4,5-dichloro-2-(3-methoxypropyl)phenyl)-3-(4-methyl-1-phenyl-3-(piperidin-4-ylmethoxy)-1H-pyrazol-5-yl)urea hydrochloride], the IC50 is reported as less than 100 nM. `COCCOc1nc(C)c(Cl)cc1NC(=O)Nc1c(C)c(-c2cnn(C)c2)nn1-c1ccccc1` [Example 6, 1-(5-chloro-2-(2-methoxyethoxy)-6-methylpyridin-3-yl)-3-(1′,4-dimethyl-1-phenyl-1H,1′H-[3,4′-bipyrazol]-5-yl)urea] showed an IC50 of less than 100 nM. For `CNC(=O)c1nn(-c2ccccc2)c(NC(=O)Nc2cc(Cl)c(Cl)cc2CCCOC)c1C` [Example 16, 5-(3-(4,5-dichloro-2-(3-methoxypropyl)phenyl)ureido)-N,4-dimethyl-1-phenyl-1H-pyrazole-3-carboxamide], the IC50 was less than 100 nM. In the case of `COCCCc1cc(Cl)c(Cl)cc1NC(=O)Nc1c(C)c(OCC2CCN(C)CC2)nn1-c1ccccc1` [Example 24], the IC50 is reported as less than 100 nM. In the case of `COCCCc1cc(Cl)c(Cl)cc1NC(=O)Nc1c(C)c(OC[C@@H]2CCCN(C)C2)nn1-c1ccccc1` [Example 35, (R)-1-(4,5-dichloro-2-(3-methoxypropyl)phenyl)-3-(4-methyl-3-((1-methylpiperidin-3-yl)methoxy)-1-phenyl-1H-pyrazol-5-yl)urea], the IC50 is reported as less than 100 nM. `CNC(=O)c1nn(-c2ccccc2)c(NC(=O)Nc2cc(C(F)(F)F)ccc2CCCOC)c1C` [Example 26, 5-(3-(2-(3-methoxypropyl)-5-(trifluoromethyl)phenyl)ureido)-N,4-dimethyl-1-phenyl-1H-pyrazole-3-carboxamide] showed an IC50 of less than 100 nM. `COCCCc1cc(Cl)c(Cl)cc1NC(=O)Nc1c(C)c(OC[C@@H]2CNCCO2)nn1-c1ccccc1` [Example 38, (S)-1-(4,5-dichloro-2-(3-methoxypropyl)phenyl)-3-(4-methyl-3-(morpholin-2-ylmethoxy)-1-phenyl-1H-pyrazol-5-yl)urea hydrochloride] was tested, and the IC50 was less than 100 nM. For `COCCCc1cc(Cl)c(Cl)cc1NC(=O)Nc1c(C)c(OC[C@H]2CCCN(C)C2)nn1-c1ccccc1` [Example 34, (S)-1-(4,5-dichloro-2-(3-methoxypropyl)phenyl)-3-(4-methyl-3-((1-methylpiperidin-3-yl)methoxy)-1-phenyl-1H-pyrazol-5-yl)urea], the IC50 was less than 100 nM. Compound `COCCOc1ccc(Cl)cc1NC(=O)Nc1c(C)c(-c2cnn(C)c2)nn1-c1ccccc1` [Example 12, 1-(5-chloro-2-(2-methoxyethoxy)phenyl)-3-(1′,4-dimethyl-1-phenyl-1H,1′H-[3,4′-bipyrazol]-5-yl)urea] has an IC50 of less than 100 nM. In the case of `COCCCc1cc(Cl)c(Cl)cc1NC(=O)Nc1c(C)c(OCCN2CCN(C(=O)OC(C)(C)C)CC2)nn1-c1ccccc1` [Example 49, tert-butyl 4-(2-((5-(3-(4,5-dichloro-2-(3-methoxypropyl)phenyl)ureido)-4-methyl-1-phenyl-1H-pyrazol-3-yl)oxy)ethyl)piperazine-1-carboxylate], the IC50 is reported as less than 100 nM. `COCCCc1cc(Cl)c(Cl)cc1NC(=O)Nc1c(C)c(OC[C@@H]2CCCNC2)nn1-c1ccccc1` [Example 47, (R)-1-(4,5-dichloro-2-(3-methoxypropyl)phenyl)-3-(4-methyl-1-phenyl-3-(piperidin-3-ylmethoxy)-1H-pyrazol-5-yl)urea hydrochloride] showed an IC50 of less than 100 nM. Work on `COCCCc1cc(Cl)c(Cl)cc1NC(=O)Nc1c(C)c(OC[C@H]2CCCNC2)nn1-c1ccccc1` [Example 46, (S)-1-(4,5-dichloro-2-(3-methoxypropyl)phenyl)-3-(4-methyl-1-phenyl-3-(piperidin-3-ylmethoxy)-1H-pyrazol-5-yl)urea hydrochloride] yielded an IC50 of less than 100 nM. For `COCCCc1cc(Cl)c(Cl)cc1NC(=O)Nc1c(C)c(C2(C#N)CCOCC2)nn1-c1ccccc1` [Example 14, 1-(3-(4-cyanotetrahydro-2H-pyran-4-yl)-4-methyl-1-phenyl-1H-pyrazol-5-yl)-3-(4,5-dichloro-2-(3-methoxypropyl)phenyl)urea], the IC50 was less than 100 nM.
